In assay [1] the target is T1, RBL-1 cell cyclooxygenase (Rattus norvegicus, UniProt Q63921).
T1 construct: the supernatant was saved as the source of enzymes; endogenous in cells; host or cells: RBL-1 rat basophilic leukemia cells, homogenate supernatant
T1 sequence (Q63921 27-602): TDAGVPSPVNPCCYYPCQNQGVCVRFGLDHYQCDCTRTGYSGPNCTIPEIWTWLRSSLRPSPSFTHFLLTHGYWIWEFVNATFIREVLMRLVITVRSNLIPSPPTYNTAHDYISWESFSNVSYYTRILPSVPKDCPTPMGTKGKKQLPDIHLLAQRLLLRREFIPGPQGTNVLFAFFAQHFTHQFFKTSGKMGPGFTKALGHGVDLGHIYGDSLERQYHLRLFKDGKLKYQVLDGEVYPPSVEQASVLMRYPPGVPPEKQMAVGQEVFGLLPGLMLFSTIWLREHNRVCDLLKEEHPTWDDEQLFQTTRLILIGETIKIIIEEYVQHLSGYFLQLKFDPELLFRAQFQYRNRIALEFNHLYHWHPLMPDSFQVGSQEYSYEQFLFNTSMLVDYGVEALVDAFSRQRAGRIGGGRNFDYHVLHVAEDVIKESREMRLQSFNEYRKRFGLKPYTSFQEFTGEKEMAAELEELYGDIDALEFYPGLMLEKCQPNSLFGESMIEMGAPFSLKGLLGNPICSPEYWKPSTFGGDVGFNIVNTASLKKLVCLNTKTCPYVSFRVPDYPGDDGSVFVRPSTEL
Kind of assay: RBL-1 cell cyclooxygenase, cell homogenate supernatant (Procedure II). It is filed as biochemical. As to conditions: RBL-1 homogenate, 3 μM; read-out: PROC. II % INHIBITION CO. The method, then:
(§1) RBL-1 cell 5-lipoxygenase and cyclooxygenase
(§2) Rat basophilic leukemia cells (RBL-1; 5×10^7 viable cells/mL) were disrupted by homogenization on ice (four 20 sec bursts) with a Brinkman polytron. Complete cell breakage was verified microscopically. The homogenate was then centrifuged at 10,000×g for 48 minutes at 4° C. The pellet was discarded and the supernatant was saved as the source of enzymes. The supernatant was pre-incubated for five minutes at 37° C. in the presence of 2 mM of CaCl2 and compound or vehicle (1% DMSO). The conversion of AA into 5-LO products was initiated by adding 10 μL (50 μCi) of 1-^14 C-AA to each tube and incubated at 37° C. for 20 minutes. The reaction was stopped by adjusting the pH of each sample to 3 to 3.5 with 2M formic acid. Samples were extracted with three volumes of chloroform to isolate the products of 5-LO formed during the reaction. Fractions were dried under nitrogen, then resuspended in 40 μL of chloroform and spotted onto silica gel HL plates. The plates were developed in A-9 solvent. The dried plates were analyzed using a Bioscan Imaging TLC scanner to determine the percentage of radiolabelled AA converted to 5-HETE in each sample.

The target in assay [2] is T2, 5-LO in intact RBL-1 cells (Rattus norvegicus, UniProt P12527).
T2 construct: endogenous in cells; host or cells: intact RBL-1 cells
T2 sequence (P12527 1-673): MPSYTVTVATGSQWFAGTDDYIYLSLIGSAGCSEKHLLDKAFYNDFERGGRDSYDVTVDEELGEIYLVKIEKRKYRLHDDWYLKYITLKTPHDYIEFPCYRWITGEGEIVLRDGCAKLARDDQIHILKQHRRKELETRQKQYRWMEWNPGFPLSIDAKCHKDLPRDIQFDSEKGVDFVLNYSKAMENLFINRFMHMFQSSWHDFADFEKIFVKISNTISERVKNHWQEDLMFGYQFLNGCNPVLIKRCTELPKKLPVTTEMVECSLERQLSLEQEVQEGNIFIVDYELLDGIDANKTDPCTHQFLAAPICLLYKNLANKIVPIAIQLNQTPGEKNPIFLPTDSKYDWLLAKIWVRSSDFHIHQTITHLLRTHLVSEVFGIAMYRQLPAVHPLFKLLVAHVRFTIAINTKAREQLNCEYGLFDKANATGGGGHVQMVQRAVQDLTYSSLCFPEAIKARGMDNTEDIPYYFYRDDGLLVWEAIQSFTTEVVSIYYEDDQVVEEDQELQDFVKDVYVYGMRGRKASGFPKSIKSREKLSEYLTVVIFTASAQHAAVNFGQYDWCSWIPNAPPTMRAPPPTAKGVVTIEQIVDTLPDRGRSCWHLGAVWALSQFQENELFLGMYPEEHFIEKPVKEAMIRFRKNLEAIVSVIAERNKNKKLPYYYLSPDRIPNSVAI
Kind of assay: 5-LO inhibition in intact RBL-1 cells (Procedure III). The assay is classed as cell-based. Particulars: read-out: PROC. III IC50 5-LO. The method, then:
(§3) The ability to inhibit 5-LO and CO in intact RBL-1 cells was also evaluated. RBL-1 cells were maintained in culture in minimal essential medium (Bio*Whittaker, Walkersville, MD), containing 12.5% fetal calf serum, 10 mg/mL streptomycin, 10 I.U./mL penicillin G, […] gentamycin and 2 mM L-glutamine (Bio*Whittaker, Walkersville, MD). Cells were collected by centrifugation, washed once in HBSS, and resuspended at a concentration of 1×10^5 cells/mL. Cells were incubated in the presence of vehicle or drug then centrifuged at 800×g for 10 minutes at 4° C. The supernatant was removed by aspiration and the cells were resuspended in 0.5 mL of HBSS. The reaction was started by the addition of 20 μg/mL of calcium ionophore A-23187 (mixed calcium and magnesium salts, Calbiochem, La Jolla CA) and allowed to proceed for 15 minutes, then stopped by plunging the tubes into a slush ice bath. The conversion of AA to 5-LO products was initiated by the addition of 10 μL (50 uCi) of 1-^14 C-AA. Products were isolated by acidification and extraction, followed by thin layer chromatography analysis as described above. Radioactive areas corresponding to authentic 5-LO and CO products were quantitated by the Bioscan 2000 Imaging System.

The test system of a further assay is CO in intact RBL-1 cells. Kind of assay: CO inhibition in intact RBL-1 cells (Procedure III). As to conditions: superscript = number of experiments, read-out: PROC. III IC50 CO. It is filed as cell-based, rat. The method, then:
as §3

Assay [3] concerns the target T3, RBL-1 cell 5-lipoxygenase (Rattus norvegicus, UniProt P12527).
T3 construct: the supernatant was saved as the source of enzymes; endogenous in cells; host or cells: RBL-1 rat basophilic leukemia cells, homogenate supernatant
T3 sequence (P12527 1-673): T2 sequence (P12527 1-673)
Kind of assay: RBL-1 cell 5-lipoxygenase, cell homogenate supernatant (Procedure II). The assay is classed as biochemical. Particulars: RBL-1 homogenate, 3 μM; read-out: PROC. II % INHIBITION 5-LO. The procedure:
as §1, §2

In assay [4] the target is T4, Sheep seminal vesicle cyclooxygenase (Ovis aries, UniProt P05979).
T4 construct: Sheep seminal vesicle (SSV) cyclooxygenase (95% pure); purchased Biomol (Plymouth Meeting, Pa.); host or cells: sheep seminal vesicle
T4 sequence (P05979 25-600): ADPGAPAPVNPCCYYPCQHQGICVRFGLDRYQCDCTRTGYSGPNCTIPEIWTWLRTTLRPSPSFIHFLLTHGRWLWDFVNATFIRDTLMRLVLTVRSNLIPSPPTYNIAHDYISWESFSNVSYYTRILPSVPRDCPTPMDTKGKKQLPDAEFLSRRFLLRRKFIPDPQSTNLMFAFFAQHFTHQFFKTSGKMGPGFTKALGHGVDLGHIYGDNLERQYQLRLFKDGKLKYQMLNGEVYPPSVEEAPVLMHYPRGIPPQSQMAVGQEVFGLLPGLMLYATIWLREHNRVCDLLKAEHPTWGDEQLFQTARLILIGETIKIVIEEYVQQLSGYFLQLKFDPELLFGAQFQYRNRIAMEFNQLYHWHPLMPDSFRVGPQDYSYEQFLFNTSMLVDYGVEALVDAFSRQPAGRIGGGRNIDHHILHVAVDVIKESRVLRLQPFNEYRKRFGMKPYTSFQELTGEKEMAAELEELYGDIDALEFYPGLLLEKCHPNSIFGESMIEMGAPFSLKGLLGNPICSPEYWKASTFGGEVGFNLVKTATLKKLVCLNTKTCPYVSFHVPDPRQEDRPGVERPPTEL
Kind of assay: Sheep seminal vesicle cyclooxygenase (Procedure I). The assay is classed as biochemical. Particulars: read-out: PROC. I % INHIB CO. The method, then:
Sheep seminal vesicle cyclooxygenase Sheep seminal vesicle (SSV) cyclooxygenase (95% pure, prostaglandin endoperoxide synthase, EC 1.14.99.1 specific activity 24 units/mg protein) obtained as a lyophilized powder from Biomol (Plymouth Meeting, Pa.) was reconstituted at a concentration of 59 mg/mL in Hanks' Balanced Salt Solution (HBSS). The enzyme was divided into 200 μL aliquots, snap frozen with liquid N2, and stored at -70° C. unitl immediately prior to use. Measurements of CO activity were carried out in polypropylene tubes containing 495 μL of HBSS to which was added 5 μL of inhibitor or dimethylsulfoxide (DMSO; vehicle control) and 6 μL of SSV CO solution. The tubes were mixed on a vortex shaker, preincubated for 5 min at 37° C. prior to the initiation of the reaction. The reaction was started by the addition of [^14 C]-arachidonic acid (1-^14 C-AA, Amersham, Arlington Heights, Il) in 10 μL of methanol. Tubes were again vortexed and incubated in a water bath for 20 minutes after which the tubes were removed and the reaction stopped by acidification with the addition of 1 mL 2M formic acid. Lipophilic products were extracted with 3 mL chloroform and concentrated to dryness under N2. Each pellet was reconstituted with 40 μL of chloroform and spotted on a Whatman Silicon thin-layer chromatography plate and developed in a chromatography tank containing A-9 solvent (11:5:2:1 V:V:V:V, ethyl acetate:trimethylpentane:acetic acid:double distilled-H2 O). Radioactive cyclooxygenase products (prostaglandin D2, prostaglandin E2, etc.) were measured using a Bioscan System 200 Imaging Scanner. Inhibition of enzyme activity was calculated by comparing the areas under the curve produced in the presence or absence of test compound.

One may read the IC50 as the concentration needed to halve the response being measured.

As for `COc1ccc(-n2nc(CSC(=S)N(C)O)cc2-c2ccc(C)cc2)cc1` [1-F], the inhibition at 3 µM came out at 100% in assay [1] and 83% in assay [3]. The IC50 in assay [2] worked out at 2400 nM; with CO in intact RBL-1 cells, 60 nM.
With `COc1ccc(-n2nc(CSC(=S)N(C)O)cc2-c2ccc(Cl)cc2)cc1` [1-A, 5-(4-chlorophenyl)-1-(4-methoxyphenyl)-3-pyrazolylmethyl-N-hydroxy-N-methyl dithiocarbamate], the inhibition at 3 µM in assay [1] worked out at 100%; in assay [3], 85%. Also, the IC50 in assay [2] was 2500 nM; in the assay on CO in intact RBL-1 cells, 230 nM.
As to `COc1ccc(-n2nc(CSC(=S)N(O)C(C)C)c(Br)c2-c2ccc(C)cc2)cc1` [1-K], the inhibition at 3 µM in assay [1] worked out at 0%; in assay [4], 0%; in assay [3], 87%.
For `COc1ccc(-n2nc(CSC(=S)N(O)C(C)C)c(Cl)c2-c2ccc(C)cc2)cc1` [1-I], the inhibition at 3 µM in assay [1] amounted to 0%; in assay [4], 0%; in assay [3], 82%.
Consider `COc1ccc(-n2nc(CSC(=S)N(C)O)c(Br)c2-c2ccc(C)cc2)cc1` [1-J], for which the inhibition at 3 µM in assay [1] came out at 52%; in assay [4], 36%; in assay [3], 83%.

The values are drawn from patent US5298521A, “1,5-diphenyl-3-pyrazolylalkyl-N-hydroxydithiocaramates, compositions and use” (Ortho Pharmaceutical Corporation, priority 1993, dated 1994).
